# Measurements taken from patent US8536199B2, “Oral combination of vitamins” (priority 2008, dated 2013).
# Test system: pregnant women in first trimester (nausea and vomiting, morning sickness)
# Test: Treatment of morning sickness in pregnant women with chewable tablets (volunteer reports)
# Assay type: in vivo, human
# Settings: volunteer 8, recalled from their first pregnancy
# Excerpt: A group of pregnant women were provided with the tablets, as prepared in Example 3, and were advised to take one to two tablets per day.
compound,measurement,value
"Cc1ncc(CO)c(CO)c1O [vitamin B6, pyridoxine]",Reported effect of vitamin B6 injections on nausea of pregnancy,did not feel helped
